Where two headings read alike, the source gives them in different places.
Assays:
[1] = target: T1, NMDA receptor (Rattus norvegicus, UniProt P35439); experiment: Inhibition of [3H]-MK-801 binding to rat crude synaptosomes (receptor ligand binding assay)
T1 construct: After the rats were decapitated, the prefrontal cortex and hippocampus were rapidly separated on ice; from tissue; host or cells: SD male rat prefrontal cortex and hippocampus, crude synaptosomes
Experimental: The affinity of the tested compounds on NMDA receptor was researched by receptor ligand binding assays.
Ten SD male rats of SPF grade were ordered and acclimated for 7 days for future use.
(§1) After the rats were decapitated, the prefrontal cortex and hippocampus were rapidly separated on ice and weighed, 10 volumes of 50 mM Tris-HCl buffer (50 mM Tris-HCl, 5 mM MgCl2·6H2O, 1 mM EDTA, 0.5% (W/V) BSA, 1 mM PMSF, 0.32 M sucrose, pH 7.4) was added, and the mixture was homogenized for five times at 1500 revolutions/min with 30 s each time. A homogenate was centrifuged for 10 min at 1000×g, and a supernatant was taken and centrifuged for 10 min at 40,000×g, the precipitates were collected, re-suspended with volumes of Tris-HCl buffer, incubated at 37° C. for 10 min, and centrifuged for 10 min at 40,000×g, finally the precipitates were re-suspended with the above buffer, aliquoted and stored at −80° C. for later use.
(2) Detection of Inhibitory Function of Tested Medicines on Binding of Crude Synaptosomes in Rats to [^3H]-MK-801
50 μg of rat crude synaptosomal proteins was added to all tubes respectively. A volume of 50 μl of MK-801 (dizocilpine) was added to a non-specific binding tube to achieve a final concentration of 100 μM, and the materials were reacted for 15 min in advance. 20 μL of control drug at corresponding concentration was added to the test tube for reaction for 15 min. A volume of 30 μl of labeled ligand [^3H]-MK-801 was successively added to all tubes to achieve a final concentration of 10 nM. All reaction tubes were supplemented to a volume of 200 μl with 50 mM Tris-HCl buffer (50 mM Tris-HCl, 5 mM MgCl2·6H2O, 1 mM EDTA, 0.5% (WN) BSA, 0.1% NaN3, pH 7.4). A reaction was carried out at 37° C. for 10 min. A type-49 glass fiber filter membrane was prepared and a sample was applied at the same time. The filter membrane was placed in a multi-head cell collector, and a reaction system was subjected to suction filtration under negative pressure and washed with an ice-cold 50 mM Tris-HCl buffer, 10 ml each time, for a total of 5 times. After suction drying, 1 ml of scintillation liquid was added to the filter membrane, the filter membrane was placed on a shaker for shaking for 1.5 h and then placed in a liquid scintillation counter on the next day to determine the radioactive intensity.
GraphPad5.0 software was used to analyze the data, and the percentage of competitive inhibition was calculated through nonlinear fitting, wherein:
Percentage of competitive inhibition %=((total binding tube cpm−compound cpm)/(total binding tube cpm−non-specific binding tube cpm))×100%;
Specific binding amount=total binding amount−non-specific binding amount, wherein each binding site was determined by double compound tubes.

[2] = target: T1, NMDA receptor; experiment: NMDA receptor agonistic properties in rat crude synaptosomal proteins (maximum [3H]-MK-801 binding vs 1 mM glycine); assay type: biochemical; conditions: maximum [3H]-MK-801 binding % relative to 1 mM glycine; 50 μM glutamic acid
Experimental: as §1
(3) Detection of Influence of Tested Medicines on NMDA Receptor Agonistic Properties in Rat Crude Synaptosomal Proteins
100 μg of rat crude synaptosomal proteins was added to all tubes respectively. 50 μl of 5,7-dichlorokynurenic acid was added to a non-specific binding tube to achieve a final concentration of 10 μM. All tubes were preloaded with 50 μM of glutamic acid, and the materials were reacted for 15 min in advance. 20 μL of control drug at corresponding concentration was added to the test tube, and then reacted for 15 min. 1 mM glycine was added to the maximum reaction tube. A volume of 30 μl of labeled ligand [^3H]-MK-801 was successively added to all tubes to achieve a final concentration of 10 nM, and reacted for 15 min. All reaction tubes were supplemented to a volume of 500 μl with 50 mM Tris-HCl buffer (50 mM Tris-HCl, 5 mM MgCl2·6H2O, 1 mM EDTA, 0.5% (WN) BSA, 0.1% NaN3, pH 7.4). A reaction was carried out at 37° C. for 15 min. A type-49 glass fiber filter membrane was prepared and a sample was applied at the same time. The filter membrane was placed in a multi-head cell collector, and the reaction system was subjected to suction filtration under negative pressure and washed with an ice-cold 50 mM Tris-HCl buffer, 10 ml each time, for a total of 5 times. After suction drying, 1 ml of scintillation liquid was added to the filter membrane, the filter membrane was placed on the shaker for shaking for 1.5 h and then placed in the liquid scintillation counter on the next day to determine the radioactive intensity.
In an agonistic experiment, maximum [^3H]-MK-801 binding %=((tested compounds cpm−5,7 dichlorokynurenic acid cpm)/(1 mM glycine cpm−5,7 dichlorokynurenic acid cpm))×100%.

[3] = affinity on NMDA, [3H]-MK-801 10 nM, rat prefrontal cortex and hippocampus crude synaptosomes, read-out: IC50

SMILES	IC50 [1, 3] [nM]	Maximum agonistic efficacy (%) [2] [%]	IC50 [1] [nM]
CC(C)(C)OC(=O)N1CC2(C1)NCCS2 [A-002]	0.33	45	–
CC(C)(C)OC(=O)N1CCC2(C1)NCCS2 (stereo not drawn) [A-016]	0.35	56	–
CC(C)(C)OC(=O)N1CCC2(CC1)NCCS2 [A-030]	0.35	39	–
CC(=O)N1CCC2(CC1)NCCS2 [A-031]	0.35	52	–
Cl.N[C@@H](CO)C(=O)N1CCC2(CC1)NCCS2 [A-035]	0.88	19	–
CC(C)[C@H](N)C(=O)N1CCC2(CC1)NCCS2.Cl [A-036]	0.89	28	–
CC(C)(C)OC(=O)N1CCCC2(C1)NCCS2 (stereo not drawn) [A-044]	0.66	28	–
C[C@@H](O)[C@H](N)C(=O)N1CCCC2(C1)NCCS2.Cl (stereo partly drawn) [A-048]	0.55	38	–
CC(=O)N1CC2(C1)SCCN2C(C)=O [A-059]	0.75	33	–
CC(=O)N1CCSC12CN(C(=O)[C@@H](N)C(C)C)C2.Cl [A-068]	1.3	48	–
CC(=O)N1CCSC12CCN(C(=O)[C@@H](N)[C@@H](C)O)C2.Cl (stereo partly drawn) [A-074]	0.89	38	–
CC(=O)N1CCSC12CCN(C(=O)OC(C)(C)C)CC2 [A-078]	1.59	56	–
CC(=O)N1CCC2(CC1)SCCN2C(C)=O [A-079]	1.25	41	–
CC(=O)N1CCSC12CCCN(C(=O)[C@@H](N)[C@@H](C)O)C2.Cl (stereo partly drawn) [A-090]	0.45	36	–
CC(C)C(=O)N1CCSC12CNC2.Cl [A-093]	–	65	0.48
CC(=O)N1CCC2(CC1)SCCN2C(=O)C(C)C [A-111]	1.58	38	–
CC(C)C(=O)N1CCSC12CCN(C(=O)[C@@H](N)[C@@H](C)O)CC2.Cl [A-114]	0.89	35	–
CC(=O)N1CCCC2(C1)SCCN2C(=O)C(C)C (stereo not drawn) [A-119]	1.89	35	–
CC(C)C(=O)N1CCSC12CCCN(C(=O)[C@@H](N)[C@@H](C)O)C2.Cl (stereo partly drawn) [A-122]	1.65	38	–
C[C@@H](O)[C@H](N)C(=O)N1CC2(C1)SCCN2C(=O)C(C)(C)C.Cl [A-130]	0.48	43	–
CC(C)CN1CCSC12CN(C(=O)[C@@H](N)[C@@H](C)O)C2.Cl [A-162]	0.45	38	–
Cl.N[C@@H](CO)C(=O)N1CC2(C1)SCCN2Cc1ccccc1 [A-195]	0.43	46	–
C[C@@H](O)[C@H](N)C(=O)N1CC2(C1)SCCN2C.Cl [A-226]	0.33	45	–
C[C@@H](O)[C@H](N)C(=O)N1CCC2(C1)SCCN2C.Cl (stereo partly drawn) [A-234]	1.58	75	–

SMILES	IC50 [1, 3] [nM]	Maximum agonistic efficacy (%) [2] [%]	IC50 [1] [nM]
CC(C)C(=O)N1CC2(C1)N[C@H](C(N)=O)CS2 [A-256]	0.89	28	–
C[C@@H](O)[C@H](N)C(=O)N1CCC2(C1)N[C@H](C(N)=O)CS2.Cl (stereo partly drawn) [A-266]	3.2	45	–
CC(C)C(=O)N1CCC2(CC1)N[C@H](C(N)=O)CS2 [A-272]	0.54	19	–
Cl.NC(=O)[C@@H]1CSC2(CCN(C(=O)[C@@H](N)CO)CC2)N1 [A-275]	0.35	12	–
CC(C)[C@H](N)C(=O)N1CCC2(CC1)N[C@H](C(N)=O)CS2.Cl [A-276]	0.25	28	–
C[C@@H](O)[C@H](N)C(=O)N1CCCC2(C1)N[C@H](C(N)=O)CS2.Cl (stereo partly drawn) [A-282]	0.32	35	–
COC(=O)[C@@H]1CSC2(CCN(C(=O)[C@@H](N)[C@@H](C)O)CC2)N1.Cl [A-291]	0.88	13	–
Cl.N#C[C@@H]1CSC2(CN(C(=O)[C@@H](N)CO)C2)N1 [A-303]	0.24	35	–
CC(C)[C@H](N)C(=O)N1CCSC12CNC2.Cl [A-329]	–	26	0.73
CC(C)[C@H](N)C(=O)N1CCSC12CN(C(=O)[C@@H](N)[C@@H](C)O)C2.Cl [A-331]	0.59	31	–
CC(=O)N1CC2(C1)N[C@H](C(=O)N[C@@H](CO)C(N)=O)CS2 [A-333]	0.41	19	–
NC(=O)C(CO)NC(=O)C1CSC2(CN(C(=O)C(N)CO)C2)N1 (stereo not drawn) [A-334]	0.38	34	–
CC(=O)N1[C@H](C(N)=O)CSC12CN(C(=O)[C@@H](N)C(C)O)C2.Cl (stereo partly drawn) [A-335]	0.48	42	–
CC(=O)N1CC2(C1)SCCN2C(=O)[C@@H](N)CC(N)=O.Cl [A-342]	0.56	32	–
C[C@@H](O)[C@H](N)C(=O)N1CCC2(C1)SCCN2C(=O)[C@@H](N)[C@@H](C)O.Cl (stereo partly drawn) [A-353]	0.48	53	–
CC(C)C(=O)N1CCC2(CC1)SCCN2C(=O)[C@@H](N)[C@@H](C)O.Cl [A-358]	0.86	78	–
C[C@@H](O)[C@H](N)C(=O)N1CCCC2(C1)SCCN2C(=O)[C@@H](N)[C@@H](C)O.Cl (stereo partly drawn) [A-367]	0.29	39	–
C[C@@H](O)[C@H](NC(=O)[C@@H]1CSC2(CNC2)N1)C(N)=O.Cl [A-370]	–	46	0.36
C[C@H](NC(=O)[C@@H]1CSC2(CN(C(=O)[C@@H](N)[C@@H](C)O)C2)N1)C(N)=O.Cl [A-378]	1.66	49	–
CC(=O)N1CCC2(C1)N[C@H](C(=O)N[C@H](C(N)=O)[C@@H](C)O)CS2.Cl (stereo partly drawn) [A-384]	0.42	39	–
C[C@@H](O)[C@H](NC(=O)[C@@H]1CSC2(CCNCC2)N1)C(N)=O.Cl [A-390]	0.39	55	–
C[C@@H](O)[C@H](N)C(=O)N1CCC2(CC1)N[C@H](C(=O)N[C@H](C(N)=O)[C@@H](C)O)CS2.Cl [A-394]	0.79	63	–
C[C@@H](O)[C@H](N)C(=O)N1CCCC2(C1)N[C@H](C(=O)N[C@H](C(N)=O)[C@@H](C)O)CS2.Cl (stereo partly drawn) [A-401]	0.44	75	–
C[C@@H](O)[C@H](N)C(=O)N1CC2(C1)N[C@H](C(=O)N1CCOCC1)CS2.Cl [A-409]	0.56	36	–

— patent publication US20230348493A1, “COMPOUND FOR ADJUSTING ACTIVITY OF NMDA RECEPTOR, AND PHARMACEUTICAL COMPOSITION AND USE THEREOF” (BEIJING GREATWAY PHARMACEUTICAL TECHNOLOGY CO., LTD., priority 2020, published 2023)
